Results reported in the supplement of paper PMC10307832.

How the values were obtained:
Experiment in all cases: relative viability (nuclei count vs DMSO), 5 days (fraction); higher = more cells survive
NCI-H2405 = test system: NCI-H2405
Method in brief: (§1)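 Dosing by pin tool came one day after lung cancer cell lines were seeded in 1536-well plates, using either one drug or a fixed anchor-drug dose plus five library-drug doses (not always all listed) in √10 steps. After 5 days, nuclei were counted on 4× images. Relative viability is treated-well nuclei count divided by vehicle-well nuclei count, and values are medians of duplicate plates.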

EKVX = test system: EKVX
Method in brief: as §1

H3255 = test system: H3255
Method in brief: as §1

PC-3 [JPC-3] = test system: PC-3 [JPC-3]
Method in brief: as §1

201T = test system: 201T
Method in brief: as §1

COR-L 105 = test system: COR-L 105
Method in brief: as §1

NCI-H2228 = test system: NCI-H2228
Method in brief: as §1

NCI-H23 = test system: NCI-H23
Method in brief: as §1

NCI-H596 = test system: NCI-H596
Method in brief: as §1

HARA = test system: HARA
Method in brief: as §1

HOP-62 = test system: HOP-62
Method in brief: as §1

NCI-H1975 = test system: NCI-H1975
Method in brief: as §1

LOU-NH91 = test system: LOU-NH91
Method in brief: as §1

NCI-H3122 = test system: NCI-H3122
Method in brief: as §1

NCI-H650 = test system: NCI-H650
Method in brief: as §1

HCC-827 = test system: HCC-827
Method in brief: as §1

NCI-H2126 = test system: NCI-H2126
Method in brief: as §1

NCI-H661 = test system: NCI-H661
Method in brief: as §1

SK-LU-1 = test system: SK-LU-1
Method in brief: as §1

NCI-H727 = test system: NCI-H727
Method in brief: as §1

LCLC-103H = test system: LCLC-103H
Method in brief: as §1

## Nc1cccc2c1CN(C1CCC(=O)NC1=O)C2=O (stereo not given) [Lenalidomide] + CS(=O)(=O)CCNCc1ccc(-c2ccc3ncnc(Nc4ccc(OCc5cccc(F)c5)c(Cl)c4)c3c2)o1 [Lapatinib] (partner 2 µM)
NCI-H2405; first compound 0.253 µM
  relative viability: 1
NCI-H2405; first compound 0.8 µM
  relative viability: 0.949
NCI-H2405; first compound 2.53 µM
  relative viability: 1.03
NCI-H2405; first compound 8 µM
  relative viability: 0.884
EKVX; first compound 0.253 µM
  relative viability: 0.208
EKVX; first compound 0.8 µM
  relative viability: 0.173
EKVX; first compound 2.53 µM
  relative viability: 0.189
EKVX; first compound 8 µM
  relative viability: 0.157
H3255; first compound 0.253 µM
  relative viability: 0.237
H3255; first compound 0.8 µM
  relative viability: 0.191
H3255; first compound 2.53 µM
  relative viability: 0.317
H3255; first compound 8 µM
  relative viability: 0.227
PC-3 [JPC-3]; first compound 0.253 µM
  relative viability: 0.515
PC-3 [JPC-3]; first compound 0.8 µM
  relative viability: 0.377
PC-3 [JPC-3]; first compound 2.53 µM
  relative viability: 0.496
PC-3 [JPC-3]; first compound 8 µM
  relative viability: 0.389
201T; first compound 0.253 µM
  relative viability: 1.07
201T; first compound 0.8 µM
  relative viability: 0.815
201T; first compound 2.53 µM
  relative viability: 1.02
201T; first compound 8 µM
  relative viability: 0.954
COR-L 105; first compound 0.253 µM
  relative viability: 0.386
COR-L 105; first compound 0.8 µM
  relative viability: 0.364
COR-L 105; first compound 2.53 µM
  relative viability: 0.343
COR-L 105; first compound 8 µM
  relative viability: 0.33
NCI-H2228; first compound 0.253 µM
  relative viability: 0.997
NCI-H2228; first compound 0.8 µM
  relative viability: 0.864
NCI-H2228; first compound 2.53 µM
  relative viability: 1.59
NCI-H2228; first compound 8 µM
  relative viability: 0.958
NCI-H23; first compound 0.253 µM
  relative viability: 1.05
NCI-H23; first compound 0.8 µM
  relative viability: 1
NCI-H23; first compound 2.53 µM
  relative viability: 1.16
NCI-H23; first compound 8 µM
  relative viability: 0.781
NCI-H596; first compound 0.253 µM
  relative viability: 1.14
NCI-H596; first compound 0.8 µM
  relative viability: 0.919
NCI-H596; first compound 2.53 µM
  relative viability: 1.1
NCI-H596; first compound 8 µM
  relative viability: 0.995
HARA; first compound 0.253 µM
  relative viability: 0.775
HARA; first compound 0.8 µM
  relative viability: 0.653
HARA; first compound 2.53 µM
  relative viability: 0.8
HARA; first compound 8 µM
  relative viability: 0.571
HOP-62; first compound 0.253 µM
  relative viability: 1
HOP-62; first compound 0.8 µM
  relative viability: 0.578
HOP-62; first compound 2.53 µM
  relative viability: 1.26
HOP-62; first compound 8 µM
  relative viability: 0.924
NCI-H1975; first compound 0.253 µM
  relative viability: 0.897
NCI-H1975; first compound 0.8 µM
  relative viability: 0.799
NCI-H1975; first compound 2.53 µM
  relative viability: 1.07
NCI-H1975; first compound 8 µM
  relative viability: 0.909
LOU-NH91; first compound 0.253 µM
  relative viability: 0.771
LOU-NH91; first compound 0.8 µM
  relative viability: 0.675
LOU-NH91; first compound 2.53 µM
  relative viability: 0.758
LOU-NH91; first compound 8 µM
  relative viability: 0.579
NCI-H3122; first compound 0.253 µM
  relative viability: 1.04
NCI-H3122; first compound 0.8 µM
  relative viability: 1.03
NCI-H3122; first compound 2.53 µM
  relative viability: 0.974
NCI-H3122; first compound 8 µM
  relative viability: 1.13
NCI-H650; first compound 0.253 µM
  relative viability: 1.04
NCI-H650; first compound 2.53 µM
  relative viability: 1.01
NCI-H650; first compound 8 µM
  relative viability: 0.804
HCC-827; first compound 0.253 µM
  relative viability: 0.189
HCC-827; first compound 0.8 µM
  relative viability: 0.202
HCC-827; first compound 2.53 µM
  relative viability: 0.151
HCC-827; first compound 8 µM
  relative viability: 0.185
NCI-H2126; first compound 0.253 µM
  relative viability: 0.743
NCI-H2126; first compound 0.8 µM
  relative viability: 0.537
NCI-H2126; first compound 2.53 µM
  relative viability: 0.733
NCI-H2126; first compound 8 µM
  relative viability: 0.584
NCI-H661; first compound 0.253 µM
  relative viability: 0.428
NCI-H661; first compound 0.8 µM
  relative viability: 0.501
NCI-H661; first compound 2.53 µM
  relative viability: 0.479
NCI-H661; first compound 8 µM
  relative viability: 0.495
SK-LU-1; first compound 0.253 µM
  relative viability: 0.804
SK-LU-1; first compound 0.8 µM
  relative viability: 0.891
SK-LU-1; first compound 2.53 µM
  relative viability: 1.11
SK-LU-1; first compound 8 µM
  relative viability: 0.889
NCI-H727; first compound 0.253 µM
  relative viability: 0.685
NCI-H727; first compound 2.53 µM
  relative viability: 1
NCI-H727; first compound 8 µM
  relative viability: 0.781

## Nc1cccc2c1CN(C1CCC(=O)NC1=O)C2=O (stereo not given) [Lenalidomide] + Cc1nc(NC(=O)N2CCC[C@H]2C(N)=O)sc1-c1ccnc(C(C)(C)C(F)(F)F)c1 [Alpelisib] (partner 2 µM)
NCI-H2405; first compound 0.253 µM
  relative viability: 0.672
NCI-H2405; first compound 0.8 µM
  relative viability: 0.83
NCI-H2405; first compound 2.53 µM
  relative viability: 0.843
NCI-H2405; first compound 8 µM
  relative viability: 0.563
EKVX; first compound 0.253 µM
  relative viability: 0.803
EKVX; first compound 0.8 µM
  relative viability: 0.95
EKVX; first compound 2.53 µM
  relative viability: 0.931
EKVX; first compound 8 µM
  relative viability: 0.772
H3255; first compound 0.253 µM
  relative viability: 0.664
H3255; first compound 0.8 µM
  relative viability: 0.682
H3255; first compound 2.53 µM
  relative viability: 0.916
H3255; first compound 8 µM
  relative viability: 0.584
PC-3 [JPC-3]; first compound 0.253 µM
  relative viability: 0.992
PC-3 [JPC-3]; first compound 0.8 µM
  relative viability: 0.981
PC-3 [JPC-3]; first compound 2.53 µM
  relative viability: 1.09
PC-3 [JPC-3]; first compound 8 µM
  relative viability: 1.05
201T; first compound 0.253 µM
  relative viability: 1.11
201T; first compound 0.8 µM
  relative viability: 1.15
201T; first compound 2.53 µM
  relative viability: 1.06
201T; first compound 8 µM
  relative viability: 0.984
COR-L 105; first compound 0.253 µM
  relative viability: 0.982
COR-L 105; first compound 0.8 µM
  relative viability: 0.81
COR-L 105; first compound 2.53 µM
  relative viability: 1.07
COR-L 105; first compound 8 µM
  relative viability: 0.994
NCI-H2228; first compound 0.253 µM
  relative viability: 0.851
NCI-H2228; first compound 0.8 µM
  relative viability: 0.736
NCI-H2228; first compound 2.53 µM
  relative viability: 0.785
NCI-H2228; first compound 8 µM
  relative viability: 0.817
NCI-H23; first compound 0.253 µM
  relative viability: 0.792
NCI-H23; first compound 0.8 µM
  relative viability: 0.581
NCI-H23; first compound 2.53 µM
  relative viability: 0.846
NCI-H23; first compound 8 µM
  relative viability: 0.47
NCI-H596; first compound 0.253 µM
  relative viability: 0.574
NCI-H596; first compound 0.8 µM
  relative viability: 0.452
NCI-H596; first compound 2.53 µM
  relative viability: 0.481
NCI-H596; first compound 8 µM
  relative viability: 0.497
HARA; first compound 0.253 µM
  relative viability: 0.782
HARA; first compound 0.8 µM
  relative viability: 0.771
HARA; first compound 2.53 µM
  relative viability: 0.921
HARA; first compound 8 µM
  relative viability: 0.743
HOP-62; first compound 0.253 µM
  relative viability: 0.983
HOP-62; first compound 0.8 µM
  relative viability: 1.08
HOP-62; first compound 2.53 µM
  relative viability: 0.984
HOP-62; first compound 8 µM
  relative viability: 0.828
NCI-H1975; first compound 0.253 µM
  relative viability: 0.724
NCI-H1975; first compound 0.8 µM
  relative viability: 0.667
NCI-H1975; first compound 2.53 µM
  relative viability: 0.753
NCI-H1975; first compound 8 µM
  relative viability: 0.592
LOU-NH91; first compound 0.253 µM
  relative viability: 0.686
LOU-NH91; first compound 0.8 µM
  relative viability: 0.762
LOU-NH91; first compound 2.53 µM
  relative viability: 0.73
LOU-NH91; first compound 8 µM
  relative viability: 0.662
NCI-H3122; first compound 0.253 µM
  relative viability: 0.779
NCI-H3122; first compound 0.8 µM
  relative viability: 0.961
NCI-H3122; first compound 2.53 µM
  relative viability: 0.797
NCI-H3122; first compound 8 µM
  relative viability: 0.659
NCI-H650; first compound 0.253 µM
  relative viability: 1.22
NCI-H650; first compound 2.53 µM
  relative viability: 1.41
NCI-H650; first compound 8 µM
  relative viability: 1.15
HCC-827; first compound 0.253 µM
  relative viability: 0.978
HCC-827; first compound 0.8 µM
  relative viability: 1.06
HCC-827; first compound 2.53 µM
  relative viability: 0.96
HCC-827; first compound 8 µM
  relative viability: 0.846
NCI-H2126; first compound 0.253 µM
  relative viability: 0.735
NCI-H2126; first compound 0.8 µM
  relative viability: 0.75
NCI-H2126; first compound 2.53 µM
  relative viability: 0.646
NCI-H2126; first compound 8 µM
  relative viability: 0.55
NCI-H661; first compound 0.253 µM
  relative viability: 0.957
NCI-H661; first compound 0.8 µM
  relative viability: 0.447
NCI-H661; first compound 2.53 µM
  relative viability: 0.458
NCI-H661; first compound 8 µM
  relative viability: 0.544
SK-LU-1; first compound 0.253 µM
  relative viability: 0.913
SK-LU-1; first compound 0.8 µM
  relative viability: 0.999
SK-LU-1; first compound 2.53 µM
  relative viability: 1.29
SK-LU-1; first compound 8 µM
  relative viability: 1.07
LCLC-103H; first compound 0.253 µM
  relative viability: 0.993
LCLC-103H; first compound 0.8 µM
  relative viability: 1
LCLC-103H; first compound 2.53 µM
  relative viability: 0.862
LCLC-103H; first compound 8 µM
  relative viability: 0.674
NCI-H727; first compound 0.253 µM
  relative viability: 0.546
NCI-H727; first compound 2.53 µM
  relative viability: 0.543
NCI-H727; first compound 8 µM
  relative viability: 0.553
